Usually pKa stands for the pH at which an ionisable group is half protonated.

Results on two molecules are retold here after EP4527379A1, “LIPIDS CONTAINING AN OLIGOGLYCEROL GROUP” (Thermosome GmbH, priority 2023, dated 2025).

Data set [1] in a line: Indicative storage stability studies using HPLC/CAD. It counts as physicochemical. The method, then:
The batch was investigated in indicative storage stability studies using HPLC/CAD. CLG2 is stable in its powder form for at least 1 year when stored at -20°C. In contrast to NLG2, CLG2 could also be stored in organic solvents (e.g., chloroform) at temperature ranges from -20 to 2-8°C for at least 9 months.

Data set [2] in a line: Solubility and chemical stability in organic solvents. It counts as physicochemical. How it is done: CLG2 is readily soluble in chloroform as a clear solution with at least 10 mg/ml.
For data set [3] the following is noted: LNP formulations with the cationizable lipid (Carrasco et al. 2021); cited from earlier work.

For the molecule `CCCCCCCCCCCCCCCC(=O)OCC(C[N+](C)(C)CC(O)COCC(O)CO)OC(=O)CCCCCCCCCCCCCCC` (centres unmarked) [CLG2], in data set [1] (organic solvents (e.g., chloroform), -20 to 2-8°C), the “could be stored in organic solvents” value is on record as “at least 9 months”. Moreover, the “stable in its powder form” value in data set [1] (powder, stored at -20°C) is “at least 1 year”. The solubility in data set [2] (chloroform, organic solvent or mixture, read-out: soluble in chloroform as a clear solution) is at least 10000 µg/mL. Besides, in data set [2] (ethanol, compared with methanol and isopropanol), the decomposition in ethanol entry was “less pronounced”.
For the molecule `CCCCC/C=C\C/C=C\CCCCCCCCC(CCCCCCCC/C=C\C/C=C\CCCCC)OC(=O)CCCN(C)C` [DLin-MC3-DMA], the pKa in data set [3] is given as 6.57.
